Assay results as given in patent publication US20170360779A1, “PHARMACEUTICAL COMPOSITION COMPRISING BICYCLIC NITROGEN-CONTAINING AROMATIC HETEROCYCLIC AMIDE COMPOUND AS ACTIVE INGREDIENT” (Astellas Pharma Inc., priority 2014, published 2017).

How the values were obtained:
[1] = system: HARA cells; experiment: Anti-tumor test (2) on mice bearing HARA tumors; assay type: in vivo, BALB/c nude mice; details: Test Example 4, HARA, final measuring day
Procedure: (§1) A427 cells and NCI-H1395 cells which are LKB1 mutation-positive non-small cell lung cancer cell lines, and HARA cells and NCI-H1993 cells which are LKB1 wild-type non-small cell lung cancer cell lines, suspended in a mixed solution of PBS and Matrigel (registered trademark) in 1:1, were injected and implanted, 3×10^6 cells each (for A427 cells, 5×10^6), to 4- to 5-week-old male BALB/c nude mice (Charles River Laboratories Japan, Inc.) under the skin on the back. Dividing into groups was performed when the tumor volume reached 100 to 300 mm^3, and administering of the test compounds was started. The test was performed on each of the 5 mice in the solvent group and the compound administered group. By oral administration, 6% cyclodextrin aqueous solution for the solvent group, and 6% cyclodextrin aqueous solution in which the test compound was mixed by the dosage shown in Table 4 for the compound administered group were administered. The administration was performed once a day for 14 days (HARA), 21 days (A427, NCI-H1993), or 35 days (NCI-H1395), and the body weight and the tumor diameter were measured twice a week. For calculation of the tumor volume, the formula below was used.
(§2) [Tumor volume (mm^3)]−[major axis of tumor (mm)]×[minor axis of tumor (mm)]^2×0.5
(§3) The inhibition rate of tumor growth and the rate of tumor regression were calculated from the average value of the tumor volume according to the formula below.
(§4) Inhibition rate of tumor growth (%)=(1−average of tumor volume growth in each group/average of tumor volume growth in control group)×100
(§5) Rate of tumor regression (%)=(1−average tumor volume in each group on measuring day/average tumor volume in each group when dividing groups)×100

[2] = system: NCI-H1395 cells; experiment: Anti-tumor test (2) on mice bearing NCI-H1395 tumors; assay type: in vivo, BALB/c nude mice; details: final measuring day
Procedure: as §1, §2, §3, §4, §5

[3] = system: NCI-H1993 cells; experiment: Anti-tumor test (2) on mice bearing NCI-H1993 tumors; assay type: in vivo, BALB/c nude mice; details: final measuring day
Procedure: as §1, §2, §3, §4, §5

[4] = system: AMPK; experiment: Evaluation on effect of activating AMPK (phosphorylation of ACC Ser79, Cell ELISA in MDA-MB-453 cells); assay type: cell-based; details: Homo sapiens, 2 hours, concentration as freebase
Procedure: 36 μl each of MDA-MB-453 cells was seeded in Leibovitz's L-15 medium including 10% fetal bovine serum (Life Technologies Corporation) in a 384 well plate so that the cells became 15,000 cells per well, and the cells were cultured overnight at 37° C. in the absence of CO2. […] After that, the cells were cultured at 37° C. for 2 hours in the absence of CO2. 20 μl of a 40% glyoxal solution (Nacalai Tesque, INC.) was added to each well, and then the cells were left to stand at room temperature for 30 minutes to be fixed. Thereafter, the supernatant was removed by centrifuging the plate (at 800 rpm for 8 seconds by using the Ecospin of C.A.N. Hereinafter the centrifugation was performed under the same conditions unless otherwise specified), and 20 μl of 0.1% Triton X-100-containing Phosphate-Buffered Saline (PBS) was added to each well, and then left to stand at room temperature for 10 minutes. The 0.1% Triton X-100-containing PBS was removed by centrifugation, and 20 μl of a blocking solution (Odyssey Blocking Buffer manufactured by LI-COR Biosciences, Inc.) was added to each well, and then left to stand at room temperature for 1 hour. […] On the following day, the reaction solution was removed by centrifuging the plate, and 25 μl of 0.05% Tween-20-containing Tris-Buffered Saline (TBS) (manufactured by Thermo Scientific; used in 1× by diluting 20×TBS Tween-20 with ion-exchange water) was added to each well, and then each well was washed by centrifugal removal. The washing was performed for a total of 3 times. […] The reaction solution was removed by centrifuging the plate, and then each well was washed for 3 times with 0.05% Tween-20-containing TBS in the same manner as after the primary antibody reaction. After the washing solution was removed, the plate was air-dried at room temperature for 3 hours or longer and signals were measured by Aerius (manufactured by LI-COR Biosciences, Inc.).

[5] = system: A427 cells; experiment: Anti-tumor test (2) on mice bearing A427 tumors; assay type: in vivo, BALB/c nude mice; details: final measuring day
Procedure: as §1, §2, §3, §4, §5

[6] = system: NCI-H1993 cells; experiment: Anti-tumor test (1) on mice bearing NCI-H1993 tumors; assay type: in vivo, BALB/c nude mice; details: Test Example 3, NCI-H1993 (LKB1 wild-type), 8 mg/kg oral once a day for 14 days, final measuring day
Procedure: (§6) A427 cells and NCI-H1395 cells which are LKB1 mutation-positive non-small cell lung cancer cell lines, and HARA cells and NCI-H1993 cells which are LKB1 wild-type non-small cell lung cancer cell lines, suspended in a mixed solution of PBS and Matrigel (registered trademark) in 1:1, were injected and implanted, 3×10^6 cells each, to 4- to 5-week-old male BALB/c nude mice (Charles River Laboratories Japan, Inc.) under the skin on the back. After that, administering of the test compounds was started after confirming that the average tumor volume exceeded 100 mm^3. The test was performed on each of the 4 to 5 mice in a solvent group and a compound administered group. By oral administration, 6% cyclodextrin aqueous solution for the solvent group, and 6% cyclodextrin aqueous solution in which the test compound was mixed by 8 mg/kg for the compound administered group were administered. The administration was performed once a day for 14 days (NCI-H1993, HARA), 21 days (A427), or 35 days (NCI-H1395), and the body weight and the tumor diameter were measured twice a week. For calculation of the tumor volume, the formula below was used.
(§7) [Tumor volume (mm^3)]=[major axis of tumor (mm)]×[minor axis of tumor (mm)]^2×0.5
(§8) The inhibition rate of tumor growth and the rate of tumor regression were calculated from the average value of the tumor volume according to the formula below. […]

[7] = system: HARA cells; experiment: Anti-tumor test (1) on mice bearing HARA tumors; assay type: in vivo, BALB/c nude mice; details: Test Example 3, HARA (LKB1 wild-type), 8 mg/kg oral once a day for 14 days, final measuring day
Procedure: as §6, §7, §8

[8] = system: NCI-H1395 cells; experiment: Anti-tumor test (1) on mice bearing NCI-H1395 tumors; assay type: in vivo, BALB/c nude mice; details: Test Example 3, NCI-H1395 (LKB1 mutation-positive), 8 mg/kg oral once a day for 35 days, final measuring day
Procedure: as §6, §7, §8

[9] = system: A427 cells; experiment: Anti-tumor test (1) on mice bearing A427 tumors; assay type: in vivo, BALB/c nude mice; details: Test Example 3, A427 (LKB1 mutation-positive), 8 mg/kg oral once a day for 21 days, final measuring day
Procedure: as §6, §7, §8

[10] = 1 mg/kg oral once a day for 14 days
[11] = Test Example 4, NCI-H1395, 1 mg/kg oral once a day for 35 days
[12] = Test Example 4, NCI-H1993, 1 mg/kg oral once a day for 21 days
[13] = Test Example 4, A427, 1 mg/kg oral once a day for 21 days
[14] = 8 mg/kg oral once a day for 14 days
[15] = Test Example 4, NCI-H1395, 8 mg/kg oral once a day for 35 days
[16] = Test Example 4, NCI-H1993, 8 mg/kg oral once a day for 21 days
[17] = Test Example 4, A427, 8 mg/kg oral once a day for 21 days

| EC50 [4] | Structure (SMILES) | Inhibition rate HARA [1, 10] | Inhibition rate NCI-H1395 [2, 11] | Inhibition rate NCI-H1993 [3, 12] | Regression rate A427 [5, 13] | Inhibition rate A427 [5, 13] | Inhibition rate HARA [1, 14] | Inhibition rate NCI-H1395 [2, 15] | Inhibition rate NCI-H1993 [3, 16] | Inhibition rate A427 [5, 17] | Inhibition rate of tumor growth [6] | Inhibition rate of tumor growth [7] | Rate of tumor regression [8] | Rate of tumor regression [9] |
| --- | --- | --- | --- | --- | --- | --- | --- | --- | --- | --- | --- | --- | --- | --- |
| 1.8 nM | CCOc1cnc(CN2CCC(c3ccc4cc(C(=O)N5CCN(Cc6ccc(C#N)cc6)CC5)n(C)c4c3)CC2)cn1 [Compound C1, 4-({4-[(6-{1-[(5-ethoxypyrazin-2-yl)methyl]piperidin-4-yl}-1-methyl-1H-indol-2-yl)carbonyl]piperazin-1-yl}methyl)benzonitrile] | 29% | 75% | 50% | 69% regression |  |  |  |  |  |  |  |  |  |
| 3.3 nM | COc1cnc(CN2CCC(c3ccc4c(c3)cc(C(=O)N3CCN(Cc5ccc(C#N)cc5)CC3)n4C)CC2)cn1 [Compound D1, 4-({4-[(5-{1-[(5-methoxypyrazin-2-yl)methyl]piperidin-4-yl}-1-methyl-1H-indol-2-yl)carbonyl]piperazin-1-yl}methyl)benzonitrile] | 31% | 70% | 42% |  | 96% inhibition |  |  |  |  |  |  |  |  |
| 8.3 nM | COc1cnc(CN2CCC(c3ccc4[nH]c(C(=O)N5CCN(Cc6ccc(C(F)(F)F)cc6)CC5)nc4c3)CC2)cn1 [Compound B1, (5-{1-[(5-methoxypyrazin-2-yl)methyl]piperidin-4-yl}-1H-benzimidazol-2-yl) {4-[4-(trifluoromethyl)benzyl]piperazin-1-yl}methanone] |  |  |  |  |  | 14% | 74% | 62% | 99% inhibition |  |  |  |  |
|  | COc1ccc(CN2CCC(c3ccc4[nH]c(C(=O)N5CCN(Cc6ccc(C(F)(F)F)cc6)CC5)nc4c3)CC2)cn1 [Compound A1, (5-{1-[(6-methoxypyridin-3-yl)methyl]piperidin-4-yl}-1H-benzimidazol-2-yl){4-[4-(trifluoromethyl)benzyl]piperazin-1-yl}methanone] |  |  |  |  |  | 1.2% | 61% | 47% | 84% inhibition | 62% inhibition | 32% inhibition | 16% regression | 41% regression |
